Values after ≈ are worked out from the molar mass of the structure shown.
Key:
[1] = test system: methicillin-resistant Staphylococcus aureus (MRSA); assay: Susceptibility (MIC/MBC) of MRSA clinical isolates; type: cell-based; conditions: Staphylococcus aureus; MRSA isolates; read-out: MIC90
[2] = test system: subset (23) of gram-negative isolates; assay: Cidality (MBC/MIC ratio) against a subset (23) of gram-negative isolates; type: cell-based, gram-negative bacteria; conditions: 23 isolates
[3] = test system: P. aeruginosa, B. cenocepacia, A. baumannii and S. maltophilia; assay: MIC/MBC against all strains of Example 8; conditions: for MBC: read-out: MBC90, against all strains
[4] = test system: Burkholderia strains; assay: Checkerboard synergy study (FIC/FBC index); type: cell-based; conditions: for Summary of synergy data (overall interaction): Burkholderia, combined with P4075EC & 5 mM EDTA
[5] = test system: Stenotrophomonas strains; assay: Checkerboard synergy study (FIC/FBC index); type: cell-based; conditions: for Summary of synergy data (overall interaction): Stenotrophomonas, combined with P4075EC & 1 mM EDTA
[6] = test system: Acinetobacter strains; assay: Checkerboard synergy study (FIC/FBC index); type: cell-based; conditions: for Summary of synergy data (overall interaction): Acinetobacter, combined with P4075EC & 1 mM EDTA
[7] = isolate NB21, combined with P4075EC+EDTA
[8] = isolate NB22, combined with P4075EC+EDTA
[9] = isolate NB23, combined with P4075EC+EDTA
[10] = isolate NB24, combined with P4075EC+EDTA
[11] = isolate NB25, combined with P4075EC+EDTA
[12] = isolate NB26, combined with P4075EC+EDTA
[13] = isolate NB27, combined with P4075EC+EDTA
[14] = isolate NB28b, combined with P4075EC+EDTA
[15] = isolate NB29, combined with P4075EC+EDTA
[16] = isolate NB30, combined with P4075EC+EDTA
[17] = share of ten Burkholderia strains with synergy, combined with P4075EC+EDTA
[18] = isolate NB42, combined with P4075EC+EDTA
[19] = isolate NB43, combined with P4075EC+EDTA
[20] = isolate NB44, combined with P4075EC+EDTA
[21] = isolate NB45, combined with P4075EC+EDTA
[22] = isolate Steno 1, combined with P4075EC+EDTA
[23] = isolate Steno 2, combined with P4075EC+EDTA
[24] = isolate Steno 3, combined with P4075EC+EDTA
[25] = isolate Steno 4, combined with P4075EC+EDTA
[26] = isolate Steno 6, combined with P4075EC+EDTA
[27] = isolate Steno 8, combined with P4075EC+EDTA
[28] = share of Stenotrophomonas strains with synergy, combined with P4075EC+EDTA
[29] = isolate NB31, combined with P4075EC+EDTA
[30] = isolate NB32, combined with P4075EC+EDTA
[31] = isolate NB33, combined with P4075EC+EDTA
[32] = isolate NB34, combined with P4075EC+EDTA
[33] = isolate NB35, combined with P4075EC+EDTA
[34] = isolate NB36, combined with P4075EC+EDTA
[35] = isolate NB37, combined with P4075EC+EDTA
[36] = isolate NB38, combined with P4075EC+EDTA
[37] = isolate NB39, combined with P4075EC+EDTA
[38] = isolate NB40, combined with P4075EC+EDTA
[39] = share of 10 Acinetobacter strains with synergy, combined with P4075EC+EDTA

Compound: C[C@H]1COc2c(N3CCN(C)CC3)c(F)cc3c(=O)c(C(=O)O)cn1c23 [Levofloxacin]
- MIC90 [1]: 32 µg/mL (≈ 88.6 µM)
- number of strains with MBC/MIC ratio 1 ([2]; Cidal): 9 number of strains
- number of strains with MBC/MIC ratio 2 ([2]; Cidal): 8 number of strains
- number of strains with MBC/MIC ratio 4 ([2]; Cidal): 1 number of strains
- number of strains with MBC/MIC ratio >8x ([2]; Static): 5 number of strains
- MIC90 [3]: 16 µg/mL (≈ 44.3 µM)
- MBC [3]: 16 µg/mL (≈ 44.3 µM)

Compound: NC[C@H]1O[C@H](O[C@H]2[C@H](O)[C@@H](O[C@H]3O[C@H](CO)[C@@H](O)[C@H](N)[C@H]3O)[C@H](N)C[C@@H]2N)[C@H](N)C[C@@H]1O [Tobramycin]
- Summary of synergy data (overall interaction) [4]: No Interference
- Summary of synergy data (overall interaction) [5]: No Interference
- MIC90 [3]: > 32 µg/mL
- MBC [3]: > 32 µg/mL
- Summary of synergy data (overall interaction) [6]: No Interference

Compound: Colistin
- Summary of synergy data (overall interaction) [4]: No Interference
- FBC [4, 7]: 2.07
- FIC [4, 7]: 1.45
- Synergy (FBC) [4, 7]: indifferent
- Synergy (FIC) [4, 7]: indifferent
- FBC [4, 8]: 2.29
- FIC [4, 8]: 1.37
- Synergy (FBC) [4, 8]: indifferent
- Synergy (FIC) [4, 8]: indifferent
- FBC [4, 9]: 2.00
- FIC [4, 9]: 1.01
- Synergy (FBC) [4, 9]: indifferent
- Synergy (FIC) [4, 9]: indifferent
- FBC [4, 10]: 2.00
- FIC [4, 10]: 1.72
- Synergy (FBC) [4, 10]: indifferent
- Synergy (FIC) [4, 10]: indifferent
- FBC [4, 11]: 3.00
- FIC [4, 11]: 2.00
- Synergy (FBC) [4, 11]: indifferent
- Synergy (FIC) [4, 11]: indifferent
- FBC [4, 12]: 0.04
- FIC [4, 12]: 0.56
- Synergy (FBC) [4, 12]: yes
- Synergy (FIC) [4, 12]: yes
- FBC [4, 13]: 1.64
- FIC [4, 13]: 1.93
- Synergy (FBC) [4, 13]: indifferent
- Synergy (FIC) [4, 13]: indifferent
- FBC [4, 14]: 1.54
- FIC [4, 14]: 0.29
- Synergy (FBC) [4, 14]: indifferent
- Synergy (FIC) [4, 14]: yes
- FBC [4, 15]: 1.68
- FIC [4, 15]: 1.61
- Synergy (FBC) [4, 15]: indifferent
- Synergy (FIC) [4, 15]: indifferent
- FBC [4, 16]: 1.86
- FIC [4, 16]: 0.02
- Synergy (FBC) [4, 16]: indifferent
- Synergy (FIC) [4, 16]: yes
- % FBC Synergy [4, 17]: 10%
- % FIC Synergy [4, 17]: 30%
- Summary of synergy data (overall interaction) [5]: Synergy
- FBC [5, 18]: 1.28
- FIC [5, 18]: 0.08
- Synergy (FBC) [5, 18]: indifferent
- Synergy (FIC) [5, 18]: yes
- FBC [5, 19]: 0.15
- FIC [5, 19]: 0.08
- Synergy (FBC) [5, 19]: yes
- Synergy (FIC) [5, 19]: yes
- FBC [5, 20]: 0.57
- FIC [5, 20]: 1.01
- Synergy (FBC) [5, 20]: indifferent
- Synergy (FIC) [5, 20]: indifferent
- FBC [5, 21]: 0.45
- FIC [5, 21]: 0.04
- Synergy (FBC) [5, 21]: yes
- Synergy (FIC) [5, 21]: yes
- FBC [5, 22]: 0.11
- FIC [5, 22]: 0.08
- Synergy (FBC) [5, 22]: yes
- Synergy (FIC) [5, 22]: yes
- FBC [5, 23]: 0.04
- FIC [5, 23]: 0.09
- Synergy (FBC) [5, 23]: yes
- Synergy (FIC) [5, 23]: yes
- FBC [5, 24]: 0.14
- FIC [5, 24]: 0.09
- Synergy (FBC) [5, 24]: yes
- Synergy (FIC) [5, 24]: yes
- FBC [5, 25]: 1.14
- FIC [5, 25]: 0.46
- Synergy (FBC) [5, 25]: indifferent
- Synergy (FIC) [5, 25]: yes
- FBC [5, 26]: 0.02
- FIC [5, 26]: 0.09
- Synergy (FBC) [5, 26]: yes
- Synergy (FIC) [5, 26]: yes
- FBC [5, 27]: 0.07
- FIC [5, 27]: 0.09
- Synergy (FBC) [5, 27]: yes
- Synergy (FIC) [5, 27]: yes
- % FBC Synergy [5, 28]: 70%
- % FIC Synergy [5, 28]: 90%
- Summary of synergy data (overall interaction) [6]: No Interference
- FBC [6, 29]: 2.44
- FIC [6, 29]: 0.83
- Synergy (FBC) [6, 29]: indifferent
- Synergy (FIC) [6, 29]: indifferent
- FBC [6, 30]: 1.36
- FIC [6, 30]: 0.58
- Synergy (FBC) [6, 30]: indifferent
- Synergy (FIC) [6, 30]: indifferent
- FBC [6, 31]: 2
- FIC [6, 31]: 0.33
- Synergy (FBC) [6, 31]: indifferent
- Synergy (FIC) [6, 31]: yes
- FBC [6, 32]: 1.10
- FIC [6, 32]: 0.46
- Synergy (FBC) [6, 32]: indifferent
- Synergy (FIC) [6, 32]: yes
- FBC [6, 33]: 0.97
- FIC [6, 33]: 0.72
- Synergy (FBC) [6, 33]: indifferent
- Synergy (FIC) [6, 33]: indifferent
- FBC [6, 34]: 2
- FIC [6, 34]: 0.56
- Synergy (FBC) [6, 34]: indifferent
- Synergy (FIC) [6, 34]: indifferent
- FBC [6, 35]: 1.00
- FIC [6, 35]: 0.63
- Synergy (FBC) [6, 35]: indifferent
- Synergy (FIC) [6, 35]: indifferent
- FBC [6, 36]: 0.68
- FIC [6, 36]: 0.77
- Synergy (FBC) [6, 36]: indifferent
- Synergy (FIC) [6, 36]: indifferent
- FBC [6, 37]: 1.22
- FIC [6, 37]: 0.72
- Synergy (FBC) [6, 37]: indifferent
- Synergy (FIC) [6, 37]: indifferent
- FBC [6, 38]: 0.91
- FIC [6, 38]: 0.63
- Synergy (FBC) [6, 38]: indifferent
- Synergy (FIC) [6, 38]: indifferent
- % FBC Synergy [6, 39]: 0%
- % FIC Synergy [6, 39]: 20%
